US10577378B2, “EIF4A-inhibiting compounds and methods related thereto” (eFFECTOR Therapeutics, Inc., priority 2015, dated 2020)

Tested on: MDA-MB-231 human breast cancer cells
Test: Cell proliferation assay (CellTiter-Glo, 72 hours treatment)
Type: cell-based
Details: Homo sapiens; MDA-MB-231 cells, 72 hours at 37° C., CellTiter-Glo; read-out: MDA-MB-231 cell proliferation assay (IC50)
In short: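 IC50 categories: under 100 nM +++, 100–1000 nM ++, above 1000 nM +, derived by sigmoidal curve fitting of CellTiter-Glo luminescence. Cells plated at 2,500 per well, dosed the following day and exposed 72 h at 37 °C versus DMSO control.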

| SMILES | IC50 [nM] |
| --- | --- |
| COc1cncc2c1[C@]1(O)[C@@H](CN3CCOCC3)[C@H](CO)[C@@H](c3ccccc3)[C@]1(c1ccc(Br)cc1)O2 (racemic) [179F, Rac-(4bR,5R,6R,7S,7aR)-7a-(4-bromophenyl)-6-(hydroxymethyl)-4-methoxy-5-(morpho-linomethyl)-7-phenyl-5,6,7,7a-tetrahydro-4bH-cyclopenta[4,5]furo[2,3-c]pyridin-4b-ol] | < 100 |
| COc1cncc2c1[C@]1(O)[C@H](O)[C@H](CCN(C)C)[C@@H](c3ccccc3)[C@]1(c1ccc(C#N)cc1)O2 (racemic) [276F, Rac-4-((4bS,5R,6R,7S,7aR)-6-(2-(dimethylamino)ethyl)-4b,5-dihydroxy-4-methoxy-7-phenyl-4b,5,6,7-tetrahydro-7aH-cyclopenta[4,5]furo[2,3-c]pyridin-7a-yl)benzonitrile] | 100 to 1000 |
| COc1cncc2c1[C@]1(O)[C@H](O)[C@H](CNCC(F)F)[C@@H](c3ccccc3)[C@]1(c1ccc(C(F)(F)F)cc1)O2 (single isomer, unassigned) [286F] | 100 to 1000 |
| COc1nc(C#N)cc2c1[C@]1(O)[C@H](O)[C@H](CN(C)C)[C@@H](c3ccccc3)[C@]1(c1ccc(C#N)cc1)O2 (single isomer, unassigned) [139F] | < 100 |
| COc1nc(C#N)cc2c1[C@]1(O)[C@H](O)[C@H](CN3CCC(F)(F)CC3)[C@@H](c3ccccc3)[C@]1(c1ccc(C#N)cc1)O2 (racemic) [157Fc, Rac-(5aR,6S,7S,8R,8aS)-5a-(4-cyanophenyl)-7-((4,4-difluoropiperidin-1-yl)methyl)-8,8a-dihydroxy-1-methoxy-6-phenyl-5a,7,8,8a-tetrahydro-6H-cyclopenta[4,5]furo[3,2-c]pyridine-3-carbonitrile] | 100 to 1000 |
| COc1nc(C#N)cc2c1[C@]1(O)[C@H](O)[C@H](CN3CC(C(F)F)C3)[C@@H](c3ccccc3)[C@]1(c1ccc(C#N)cc1)O2 (racemic) [218F, Rac-(5aR,6S,7S,8R,8aS)-5a-(4-cyanophenyl)-7-((3-(difluoromethyl)azetidin-1-yl)methyl)-8,8a-dihydroxy-1-methoxy-6-phenyl-5a,7,8,8a-tetrahydro-6H-cyclopenta[4,5]furo[3,2-c]pyridine-3-carbonitrile] | < 100 |
| N#Cc1ccc([C@@]23Oc4cc(Cl)cnc4[C@]2(O)[C@H](O)[C@H](Sc2ccccn2)[C@H]3c2ccccc2)cc1 (racemic) [189F, Rac-4-((5aR,6S,7R,8S,8aS)-3-chloro-8,8a-dihydroxy-6-phenyl-7-(pyridin-2-ylthio)-6,7,8,8a-tetrahydro-5aH-cyclopenta[4,5]furo[3,2-b]pyridin-5a-yl)benzonitrile] | 100 to 1000 |
| COc1cncc2c1[C@]1(O)[C@H](O)[C@H](CN3CC4(COC4)C3)[C@@H](c3ccccc3)[C@]1(c1ccc(C#N)cc1)O2 (racemic) [236F, Rac-4-((4bS,5R,6S,7S,7aR)-6-((2-oxa-6-azaspiro[3.3]heptan-6-yl)methyl)-4b,5-dihydroxy-4-methoxy-7-phenyl-4b,5,6,7-tetrahydro-7aH-cyclopenta[4,5]furo[2,3-c]pyridin-7a-yl)benzonitrile] | 100 to 1000 |
| COc1cncc2c1[C@]1(O)[C@H](O)[C@H](C(=O)N(C)CC(C)(C)O)[C@@H](c3ccccc3)[C@]1(c1ccc(Br)cc1)O2 (racemic) [251F, Rac-(4bS,5R,6R,7S,7aR)-7a-(4-bromophenyl)-4b,5-dihydroxy-N-(2-hydroxy-2-methylpropyl)-4-methoxy-N-methyl-7-phenyl-4b,6,7,7a-tetrahydro-5H-cyclopenta[4,5]furo[2,3-c]pyridine-6-carboxamide] | < 100 |
| CS(=O)(=O)[C@H]1[C@@H](O)[C@@]2(O)c3ncc(Cl)cc3O[C@@]2(c2ccc(Br)cc2)[C@@H]1c1ccccc1 (racemic) [84F, Rac-(5aR,6S,7R,8S,8aS)-5a-(4-bromophenyl)-3-chloro-7-(methylsulfonyl)-6-phenyl-5a,6,7,8-tetrahydro-8aH-cyclopenta[4,5]furo[3,2-b]pyridine-8,8a-diol] | > 1000 |
| CN(C)C(=O)[C@H]1[C@@H](O)[C@@]2(O)c3ncc(Cl)cc3O[C@@]2(c2ccc(C(F)(F)F)cc2)[C@@H]1c1ccccc1 (single isomer, unassigned) [8F] | 100 to 1000 |
| N#Cc1ccc([C@@]23Oc4cc(Cl)cnc4[C@]2(O)[C@@H]2OC[C@@H]2[C@H]3c2ccccc2)cc1 (racemic) [61F, rac-4-((2aS,3S,3aR,8bS,8cR)-6-chloro-8b-hydroxy-3-phenyl-2a,3,8b,8c-tetrahydrooxeto[3″,2″:4′,5′]cyclopenta[1′,2′:4,5]furo[3,2-b]pyridin-3a(2H)-yl)benzonitrile] | > 1000 |
| COc1ccc([C@@]23Oc4cc(OC)cnc4[C@]2(O)[C@H](O)[C@H](C(=O)N(C)C)[C@H]3c2ccccc2)cc1 (racemic) [1F, Rac-(5aR,6S,7R,8R,8aS)-8,8a-dihydroxy-3-methoxy-5a-(4-methoxyphenyl)-N,N-dimethyl-6-phenyl-5a,7,8,8a-tetrahydro-6H-cyclopenta[4,5]furo[3,2-b]pyridine-7-carboxamide] | 100 to 1000 |
| O[C@@H]1C[C@@H](c2ccccc2)[C@]2(c3ccc(Br)cc3)Oc3cc(Cl)cnc3[C@]12O (racemic) [127F, Rac-(5aR,6S,8R,8aS)-5a-(4-bromophenyl)-3-chloro-6-phenyl-5a,6,7,8-tetrahydro-8aH-cyclopenta[4,5]furo[3,2-b]pyridine-8,8a-diol] | 100 to 1000 |
| CCN(CC)C[C@H]1[C@@H](O)[C@@]2(O)c3c(cc(Cl)nc3OC)O[C@@]2(c2ccc(C#N)cc2)[C@@H]1c1ccccc1 (racemic) [159Fb, Rac-4-((5aR,6S,7S,8R,8aS)-3-chloro-7-((diethylamino)methyl)-8,8a-dihydroxy-1-methoxy-6-phenyl-6,7,8,8a-tetrahydro-5aH-cyclopenta[4,5]furo[3,2-c]pyridin-5a-yl)benzonitrile] | < 100 |
| COc1cncc2c1[C@]1(O)[C@H](O)[C@H](CN3CCC(F)(F)CC3)[C@@H](c3ccccc3)[C@]1(c1ccc(C#N)cc1)O2 (single isomer, unassigned) [113F] | 100 to 1000 |
| OC[C@H]1[C@@H](O)[C@@]2(O)c3ncc(Cl)cc3O[C@@]2(c2ccc(Br)cc2)[C@@H]1c1ccccc1 (racemic) [55F, Rac-(5aR,6S,7S,8R,8aS)-5a-(4-bromophenyl)-3-chloro-7-(hydroxymethyl)-6-phenyl-5a,6,7,8-tetrahydro-8aH-cyclopenta[4,5]furo[3,2-b]pyridine-8,8a-diol] | 100 to 1000 |
| COc1cncc2c1[C@]1(O)[C@H](O)[C@H](CN(C)CC(F)(F)F)[C@@H](c3ccccc3)[C@]1(c1ccc(C#N)cc1)O2 (single isomer, unassigned) [233F] | 100 to 1000 |
| COc1nc(Cl)cc2c1[C@]1(O)[C@H](O)[C@H](CN3CCC(F)CC3)[C@@H](c3ccccc3)[C@]1(c1ccc(C#N)cc1)O2 (racemic) [156Fb, Rac-4-((5aR,6S,7S,8R,8aS)-3-chloro-7-((4-fluoropiperidin-1-yl)methyl)-8,8a-dihydroxy-1-methoxy-6-phenyl-6,7,8,8a-tetrahydro-5aH-cyclopenta[4,5]furo[3,2-c]pyridin-5a-yl)benzonitrile] | < 100 |
| COc1nc(C#N)cc2c1[C@]1(O)[C@H](O)[C@H](CN3CCOCC3)[C@@H](c3ccccc3)[C@]1(c1ccc(C#N)cc1)O2 (single isomer, unassigned) [151F] | < 100 |
| CN(C)C(=O)[C@H]1[C@@H](O)[C@@]2(O)c3ncc(Cl)cc3O[C@@]2(c2ccc(OC(F)(F)F)cc2)[C@@H]1c1ccccc1 (single isomer, unassigned) [17F] | 100 to 1000 |
| CC1(C)COCCN1C[C@H]1[C@@H](O)[C@@]2(O)c3ncc(Cl)cc3O[C@@]2(c2ccc(Br)cc2)[C@@H]1c1ccccc1 (racemic) [214F, Rac-(5aR,6S,7S,8R,8aS)-5a-(4-bromophenyl)-3-chloro-7-((3,3-dimethylmorpholino)methyl)-6-phenyl-5a,6,7,8-tetrahydro-8aH-cyclopenta[4,5]furo[3,2-b]pyridine-8,8a-diol] | 100 to 1000 |
| COc1cncc2c1[C@]1(O)[C@H](O)[C@H](N)[C@@H](c3ccccc3)[C@]1(c1ccc(C(F)F)cc1)O2 (racemic) [270F, Rac-(4bS,5R,6R,7R,7aR)-6-amino-7a-(4-(difluoromethyl)phenyl)-4-methoxy-7-phenyl-5,6,7,7a-tetrahydro-4bH-cyclopenta[4,5]furo[2,3-c]pyridine-4b,5-diol] | 100 to 1000 |
| N#Cc1ccc([C@@]23Oc4cc(Cl)cnc4[C@]2(O)[C@H](O)[C@H](C(N)=O)[C@H]3c2ccccc2)cc1 (single isomer, unassigned) [18F] | < 100 |
| COc1cncc2c1[C@]1(O)[C@H](O)[C@H](CNCc3ccnn3C)[C@@H](c3ccccc3)[C@]1(c1ccc(C#N)cc1)O2 (racemic) [242F, Rac-4-((4bS,5R,6S,7S,7aR)-4b,5-dihydroxy-4-methoxy-6-((((1-methyl-1H-pyrazol-5-yl)methyl)amino)methyl)-7-phenyl-4b,5,6,7-tetrahydro-7aH-cyclopenta[4,5]furo[2,3-c]pyridin-7a-yl)benzonitrile] | 100 to 1000 |
| COc1cncc2c1[C@]1(O)[C@H](O)[C@H](CN3[C@@H]4CCC[C@H]3CC4)[C@@H](c3ccccc3)[C@]1(c1ccc(C#N)cc1)O2 (single isomer, unassigned) [268F] | 100 to 1000 |
| O=C1N[C@H]2[C@@H](O1)[C@@]1(O)c3ncc(Cl)cc3O[C@@]1(c1ccc(Br)cc1)[C@@H]2c1ccccc1 (racemic) [53F, Rac-(3aR,3bS,8aR,9R,9aR)-8a-(4-bromophenyl)-6-chloro-3b-hydroxy-9-phenyl-1,3a,3b,8a,9,9a-hexahydro-2H-oxazolo[4″,5″:4′,5′]cyclopenta[1′,2′:4,5]furo[3,2-b]pyridin-2-one] | < 100 |
| N#Cc1ccc([C@@]23Oc4cc(Cl)cnc4[C@]2(O)[C@@H]2OC(=O)N[C@@H]2[C@H]3c2ccccc2)cc1 (racemic) [54F, Rac-4-((3aR,3bS,8aR,9R,9aR)-6-chloro-3b-hydroxy-2-oxo-9-phenyl-1,2,3a,3b,9,9a-hexahydro-8aH-oxazolo[4″,5″:4′,5′]cyclopenta[1′,2′:4,5]furo[3,2-b]pyridin-8a-yl)benzonitrile] | 100 to 1000 |
